Results reported in patent US12643871B2, “Aryl formamide compound containing chiral sulfur oxide or salt thereof, preparation method, herbicidal composition and use thereof” (Qingdao Kingagroot Chemical Compound Co., Ltd., priority 2019, dated 2026).

How the values were obtained:
Format in all cases: in vivo
[1] = tested on: Amaranthus retroflexus; assay: Weeding effect in post-emergence stage; conditions: 250 g/ha; 2 leaf stage; 15 days after application; fresh weight control rate
Summary of the method: (§1)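 Pot-grown weeds sprayed post-emergence at the 2-leaf stage, 2 weeks after sowing, with compound in acetone/Tween 80 plus 1.5 L/ha methyl oleate concentrate at 500–15 g/ha. Fresh-weight growth control scored after 15 days in greenhouse, mean of three replicates, graded levels 0–5 (5: >85%, 0: <5%).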

[2] = tested on: Echinochloa crusgali; assay: Weeding effect in post-emergence stage; conditions: 250 g/ha; 2 leaf stage; 15 days after application; fresh weight control rate
Summary of the method: as §1

[3] = tested on: key weeds such as Digitaria sanguinalis, Leptochloa chinensis; assay: Comparison experiment (post-emergence, Tables 4-7), herbicidal activity on weeds not listed separately
Description: (§2) The above growth control rates are fresh weight control rates.
(§3) Experiment on weeding effect in post-emergence stage: monocotyledonous and dicotyledonous weed seeds (Descurainia sophia, Capsella bursa-pastoris, Galium aparine, Stellaria media, Lithospermum arvense, Rorippa indica, Alopecurus aequalis, Beckmannia syzigachne, Sclerochloa dura, Phleum paniculatum, Bromus japonicus, Aegilops tauschii, Phalaris arundinacea, Amaranthus retroflexus, Chenopodiaceae, Commelina communis, Sonchus arvensis, convolvulus arvensis, Cirsium setosum, Solanum nigrum, Acalypha australis, Digitaria sanguinalis, Echinochloa crusgalli, Setaria viridis, Setaria glauca, Leptochloa chinensis, Monochoria vaginalis, Sagittaria trifolia, Scirpus juncoides, Cyperus rotundus, Cyperus iria, Cyperus difformis, Fimbristylis, Portulaca oleracea, Xanthium sibiricum, Pharbitis nil) and major crop seeds (wheat, corn, rice, soybean, cotton, oilseed rape, millet, sorghum, potato, sesame, ricinus) were placed in plastic pots filled with soil, then covered with 0.5-2 cm of soil, allowed to grow in a good greenhouse environment. After 2 weeks of sowing, the test plants were treated in the 2 leaf stage. The tested compounds of the present invention were respectively dissolved in acetone, then added with Tween 80 and 1.5 liter/ha of emulsifiable concentrate of methyl oleate as synergist, diluted with a certain amount of water to obtain a solution with a certain concentration, and sprayed with a spray tower onto the plants. After the application, the plants were cultured for 15 days in the greenhouse, and then the experimental results of the weeding were counted. The doses of the used compounds were 500, 250, 125, 60, 30, 15 g/ha, and the averages were obtained by repeating for three times.
(§4) If there is no clear marker, the post-seedling test conditions are the same as above, and the experimental results are shown in Tables 4-7.

[4] = tested on: rice and other crops; assay: Comparison experiment (post-emergence, Tables 4-7), crop safety; conditions: dose of 125, 60, 30, 15 g/ha
Description: as §2, §3, §4

[5] = tested on: Digitaria sanguinalis; assay: Weeding effect in post-emergence stage; conditions: 250 g/ha; 2 leaf stage; 15 days after application; fresh weight control rate
Summary of the method: as §1

[6] = tested on: Setaria viridis; assay: Weeding effect in post-emergence stage; conditions: 250 g/ha; 2 leaf stage; 15 days after application; fresh weight control rate
Summary of the method: as §1

[7] = tested on: Abutilon theophrasti; assay: Weeding effect in post-emergence stage; conditions: 250 g/ha; 2 leaf stage; 15 days after application; fresh weight control rate
Summary of the method: as §1

Structure (SMILES)	weeding effect in post-emergence stage, activity level (growth control rate), Amaranthus retroflexus [1]	weeding effect in post-emergence stage, activity level (growth control rate), Echinochloa crusgali [2]	activity to key weeds such as Digitaria sanguinalis, Leptochloa chinensis compared with the corresponding racemate or S configuration ([3]; dose of 125, 60, 30, 15 g/ha)	safety to rice and other crops compared with the corresponding racemate or S configuration [4]	weeding effect in post-emergence stage, activity level (growth control rate), Digitaria sanguinalis [5]	weeding effect in post-emergence stage, activity level (growth control rate), Setaria viridis [6]	weeding effect in post-emergence stage, activity level (growth control rate), Abutilon theophrasti [7]	herbicidal activity and/or crop safety compared with the corresponding racemate or S configuration ([3]; dose of 120, 48, 30, 24 g/ha)	herbicidal activity and/or crop safety compared with the corresponding racemate or S configuration ([3]; no dose stated)
Cc1nnc(NC(=O)c2ccc(C(F)(F)F)c([S@+]([O-])CC3COC3)c2F)o1 [Compound 80]	5 (Level 5: growth control rate is above 85%)	5 (Level 5: growth control rate is above 85%)	better activity	higher safety	–	–	–	–	–
CSc1c(C(=O)Nc2nnc(C)o2)ccc(C(F)(F)F)c1[S@+]([O-])CC1CC1 [Compound 554]	5 (Level 5: growth control rate is above 85%)	5 (Level 5: growth control rate is above 85%)	–	–	5 (Level 5: growth control rate is above 85%)	5 (Level 5: growth control rate is above 85%)	5 (Level 5: growth control rate is above 85%)	better herbicidal activity and/or crop safety	–
C=CC[S@@+]([O-])c1c(C(F)(F)F)ccc(C(=O)Nc2nnc(C)o2)c1SC [Compound 552]	5 (Level 5: growth control rate is above 85%)	5 (Level 5: growth control rate is above 85%)	–	–	5 (Level 5: growth control rate is above 85%)	5 (Level 5: growth control rate is above 85%)	5 (Level 5: growth control rate is above 85%)	better herbicidal activity and/or crop safety	–
CCC[S@@+]([O-])c1c(C(F)F)ccc(C(=O)Nc2nnc(C)o2)c1OC [Compound 864]	5 (Level 5: growth control rate is above 85%)	5 (Level 5: growth control rate is above 85%)	–	–	5 (Level 5: growth control rate is above 85%)	5 (Level 5: growth control rate is above 85%)	5 (Level 5: growth control rate is above 85%)	–	better herbicidal activity and/or crop safety
CSc1c(C(=O)Nc2nnc(C)o2)ccc(C(F)(F)F)c1[S@+]([O-])CCCF [Compound 559]	5 (Level 5: growth control rate is above 85%)	5 (Level 5: growth control rate is above 85%)	–	–	5 (Level 5: growth control rate is above 85%)	5 (Level 5: growth control rate is above 85%)	5 (Level 5: growth control rate is above 85%)	better herbicidal activity and/or crop safety	–
COc1c(C(=O)Nc2nnc(C)o2)ccc(C(F)(F)F)c1[S@+]([O-])CC1CC1 [Compound 310]	5 (Level 5: growth control rate is above 85%)	5 (Level 5: growth control rate is above 85%)	–	–	5 (Level 5: growth control rate is above 85%)	5 (Level 5: growth control rate is above 85%)	5 (Level 5: growth control rate is above 85%)	–	better herbicidal activity and/or crop safety
